From US20090275496A1, “Effective quantitation of complex peptide mixtures in tissue samples and improved therapeutic methods” (Peptimmune, Inc., priority 2004, published 2009)

Tests used:
MS = details: Bornstein 1987; Johnson 1995; cited from earlier work
HLA-DR4 (DRB1*0401) = HLA-DR4 (DRB1*0401) (Homo sapiens, UniProt P01903+P01911, A100K/A169T/F76Y/I96L/K127E/L162R/M171V/N62H/P40V/Q125Y/R42H/S133A/S149N/S66Y/V115G/V209L/W38E); details: RA-associated, peptide-specific manner; cited from earlier work
[1] = Serum concentration and bioavailability after administration to mice (ELISA); type: in vivo, CD-1 mice
Method: The blood sample was allowed to clot at room temperature for 15-30 minutes and then the tube was centrifuged at 4° C., 10,000 RPM, for 10 minutes in order to isolate serum. Serum was collected, aliquoted, and stored −80° C. for future testing.
After washing away any unbound conjugate, substrate was added to the wells and incubated, yielding a blue color that turned yellow when stop solution was added. The optical density was measured at 450 nm and a standard curve was generated.

[2] = tested on: anti-PI-2301 biotinylated antibody (bAb); test: Direct competition ELISA, specificity of the anti-PI-2301 biotinylated antibody; type: binding, rabbit
Method: A direct competition ELISA was carried out for the detection and quantitation of PI-2301, an RSP composition. […] Unbound material was washed away and diluted streptavidin-horseradish peroxidase (HRP) conjugate was added to the wells. After washing away any unbound streptavidin conjugate, substrate for HRP catalyzed […] was added to the wells and incubated, yielding a blue color that turns yellow when stop solution is added. The optical density of the color was measured at 450 nm using a microtiter plate reader (for example, Bio-Tek ELx405) and a standard curve was generated.
Specificity is the ability of a method to measure the material of interest to the exclusion of other similar compounds. In this method, specificity is a function of the anti-PI-2301 biotinylated antibody (bAb). If the bAb recognizes, and binds preferentially to, the compound in the serum the bAb will be washed away and the final A450 value will be low. […] Table 5 summarizes the A450 specificity data for 3 compounds spiked into mouse serum.

HLA-DR1 (DRB1*0101) = HLA-DR1 (DRB1*0101) (Homo sapiens, UniProt P01903+P01911, A100R/D57E/F55L/F60I/F76Y/I96L/L162R/M171V/P40L/Q125E/R42F/V115G/Y59C); details: RA-associated, peptide-specific manner; cited from earlier work
HLA-DR2 (DRB1*1501) = HLA-DR2 (DRB1*1501) (Homo sapiens, UniProt P01903+P01911); details: MS-associated, peptide-specific manner; cited from earlier work
[3] = tested on: myeloid cells isolated from femurs of immunologically naive mice; test: In vitro effects on macrophages: cytokines and chemokines in supernatants; type: cell-based; details: culture supernatant
Description: Isolated cells were labeled with magnetic beads and T- and B-cells were depleted from the sample. […] TNFα, IL-6, CXCL1 and CXCL2 as inflammatory markers, and IL-12p70, CXCL13, and CCL22 as regulatory markers.

Substance: glatiramer acetate [Cop-1]
- effect on MS in patients (MS): ameliorate MS but does not suppress the disease entirely
- binding to purified HLA-DR4 (DRB1*0401) (HLA-DR4 (DRB1*0401)): high affinity
- time of peak serum concentration ([1]; after subcutaneous administration to mice): about 15 minutes
- administered amount available in the plasma (bioavailability) ([1]; mice, single subcutaneous or intravenous administration): About 8.5%
- detection by the antibody for PI-2301 [2]: detects Cop-1 efficiently
- binding to purified HLA-DR1 (DRB1*0101) (HLA-DR1 (DRB1*0101)): high affinity
- binding to purified HLA-DR2 (DRB1*1501) (HLA-DR2 (DRB1*1501)): high affinity
- expression of CXCL1 [3]: no significant effect
- expression of CXCL2 [3]: no significant effect
- expression of IL-6 [3]: no significant effect
- expression of TNFα [3]: no significant effect
